From US9328386B2, “Markers for susceptibility to an inhibitor of an Src-family kinase” (Evotec (München) GmbH, priority 2011, dated 2016)
Where two headings read alike, the source gives them in different places.

Key:
HCC1359 NSCLC cell line [1] = assay: Cellular growth inhibition (CellTiter Glo viability assay); assay type: cell-based; conditions: Homo sapiens, 96 h; read-out: GI50 this paper
LCLC103H NSCLC cell line [2] = assay: as above; assay type: cell-based; conditions: Homo sapiens, LCLC-103H, 96 h; read-out: GI50 this paper
[3] = test system: MDA-MB-468 breast cancer cell line; assay: as above; assay type: cell-based; conditions: Homo sapiens, MDA-MB-468, 96 h; read-out: GI50 this paper
Calu6 NSCLC cell line = conditions: dasatinib, cited from earlier work
H2009 NSCLC cell line = conditions: dasatinib, cited from earlier work
H2030 NSCLC cell line = conditions: dasatinib, cited from earlier work
H2077 NSCLC cell line = conditions: dasatinib, cited from earlier work
H2172 NSCLC cell line = conditions: dasatinib, cited from earlier work
H322 NSCLC cell line = conditions: dasatinib, cited from earlier work
H460 NSCLC cell line = conditions: dasatinib, cited from earlier work
H647 NSCLC cell line = conditions: dasatinib, cited from earlier work
HCC1359 NSCLC cell line [4] = conditions: dasatinib, cited from earlier work
LCLC103H NSCLC cell line [5] = conditions: dasatinib, cited from earlier work
LouNH91 NSCLC cell line = conditions: dasatinib, cited from earlier work
HCC4006 NSCLC cell line = conditions: dasatinib, cited from earlier work
H322M NSCLC cell line = conditions: dasatinib, cited from earlier work
HCC2279 NSCLC cell line = conditions: dasatinib, cited from earlier work
PC9 NSCLC cell line = conditions: dasatinib, cited from earlier work
MAP2K1 = MAP2K1 (Homo sapiens, UniProt Q02750); assay: biochemical
Chain of MAP2K1 (Q02750 whole entry): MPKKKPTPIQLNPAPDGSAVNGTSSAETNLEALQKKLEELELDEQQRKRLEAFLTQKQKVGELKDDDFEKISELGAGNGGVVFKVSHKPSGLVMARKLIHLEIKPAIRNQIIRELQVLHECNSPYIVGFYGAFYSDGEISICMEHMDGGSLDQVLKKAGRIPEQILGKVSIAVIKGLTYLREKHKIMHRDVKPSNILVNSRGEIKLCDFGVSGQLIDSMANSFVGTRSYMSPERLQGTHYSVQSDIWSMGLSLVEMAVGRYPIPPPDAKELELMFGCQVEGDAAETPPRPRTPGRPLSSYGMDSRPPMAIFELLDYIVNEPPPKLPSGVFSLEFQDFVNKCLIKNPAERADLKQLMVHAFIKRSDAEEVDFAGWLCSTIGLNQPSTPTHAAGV
Procedure: (§1) For in vitro association experiments 4×10^8 PC9 cells were lysed in buffer containing 20 mM HEPES pH 7.5, 400 mM NaCl. 0.25% Triton X-100, 1 mM DTT, 1.5 mM MgCl2, 0.5 mM ZnCl2, 0.5 mM EDTA, 0.5 mM EGTA, 1600 U/ml Benzonase plus additives (10 μg/ml aprotinin, 10 μg/ml leupeptin, 1 mM PMSF, 1 mM Na3VO4, 10 mM NaF). After centrifugation the supernatant was adjusted to 1 M NaCl, filtered through a 0.45 μm celluloseacetate filter and subjected to KinAffinity™ beads representing several different broad-spectrum kinase inhibitors immobilized on Sepharose beads. For each in vitro association experiment 750 μl cell extract (4 mg/ml) were incubated with 30 μl KinAffinity™ beads for 2.5 h at 4° C. […] The extracted peptides were derivatized for quantitative mass spectrometry using the TMT 6-plex reagent according to the manufactures instructions and were subsequently combined for mass spectrometric analysis.
(§2) Mass spectrometric analysis of the labeled and combined peptide fractions was carried out by on-line nanoLC-MS/MS. […] The resulting fragmentation spectra were also recorded in the linear ion trap.
(§3) Regarding the search parameters, the minimal peptide length was set to 6 amino acids, trypsin was selected as proteolytic enzyme and maximally 2 missed cleavage sites were allowed. […] The intensities of the TMT reporter ions were read from the msm files. […]

MAP2K2 = MAP2K2 (Homo sapiens, UniProt P36507); assay: biochemical
Chain of MAP2K2 (P36507 whole entry): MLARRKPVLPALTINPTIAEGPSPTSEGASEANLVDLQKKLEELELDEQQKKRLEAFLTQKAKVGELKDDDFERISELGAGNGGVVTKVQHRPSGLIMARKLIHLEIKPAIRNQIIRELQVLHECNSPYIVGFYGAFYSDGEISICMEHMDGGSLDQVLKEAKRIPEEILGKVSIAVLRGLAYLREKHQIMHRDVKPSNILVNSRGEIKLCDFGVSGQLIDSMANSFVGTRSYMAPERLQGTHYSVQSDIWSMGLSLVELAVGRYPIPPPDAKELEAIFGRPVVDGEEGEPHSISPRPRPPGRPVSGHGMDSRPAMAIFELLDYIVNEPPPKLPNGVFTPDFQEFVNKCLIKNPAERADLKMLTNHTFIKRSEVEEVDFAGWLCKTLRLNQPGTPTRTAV
Procedure: as §1, §2, §3

MET = MET (Homo sapiens, UniProt P08581); assay: KinAffinity target profiling; assay type: binding; set-up: endogenous in cells; host or cells: PC9 cells (lysate); conditions: PC9 cell extract, read-out: KD_free
Chain of MET (P08581 25-1390): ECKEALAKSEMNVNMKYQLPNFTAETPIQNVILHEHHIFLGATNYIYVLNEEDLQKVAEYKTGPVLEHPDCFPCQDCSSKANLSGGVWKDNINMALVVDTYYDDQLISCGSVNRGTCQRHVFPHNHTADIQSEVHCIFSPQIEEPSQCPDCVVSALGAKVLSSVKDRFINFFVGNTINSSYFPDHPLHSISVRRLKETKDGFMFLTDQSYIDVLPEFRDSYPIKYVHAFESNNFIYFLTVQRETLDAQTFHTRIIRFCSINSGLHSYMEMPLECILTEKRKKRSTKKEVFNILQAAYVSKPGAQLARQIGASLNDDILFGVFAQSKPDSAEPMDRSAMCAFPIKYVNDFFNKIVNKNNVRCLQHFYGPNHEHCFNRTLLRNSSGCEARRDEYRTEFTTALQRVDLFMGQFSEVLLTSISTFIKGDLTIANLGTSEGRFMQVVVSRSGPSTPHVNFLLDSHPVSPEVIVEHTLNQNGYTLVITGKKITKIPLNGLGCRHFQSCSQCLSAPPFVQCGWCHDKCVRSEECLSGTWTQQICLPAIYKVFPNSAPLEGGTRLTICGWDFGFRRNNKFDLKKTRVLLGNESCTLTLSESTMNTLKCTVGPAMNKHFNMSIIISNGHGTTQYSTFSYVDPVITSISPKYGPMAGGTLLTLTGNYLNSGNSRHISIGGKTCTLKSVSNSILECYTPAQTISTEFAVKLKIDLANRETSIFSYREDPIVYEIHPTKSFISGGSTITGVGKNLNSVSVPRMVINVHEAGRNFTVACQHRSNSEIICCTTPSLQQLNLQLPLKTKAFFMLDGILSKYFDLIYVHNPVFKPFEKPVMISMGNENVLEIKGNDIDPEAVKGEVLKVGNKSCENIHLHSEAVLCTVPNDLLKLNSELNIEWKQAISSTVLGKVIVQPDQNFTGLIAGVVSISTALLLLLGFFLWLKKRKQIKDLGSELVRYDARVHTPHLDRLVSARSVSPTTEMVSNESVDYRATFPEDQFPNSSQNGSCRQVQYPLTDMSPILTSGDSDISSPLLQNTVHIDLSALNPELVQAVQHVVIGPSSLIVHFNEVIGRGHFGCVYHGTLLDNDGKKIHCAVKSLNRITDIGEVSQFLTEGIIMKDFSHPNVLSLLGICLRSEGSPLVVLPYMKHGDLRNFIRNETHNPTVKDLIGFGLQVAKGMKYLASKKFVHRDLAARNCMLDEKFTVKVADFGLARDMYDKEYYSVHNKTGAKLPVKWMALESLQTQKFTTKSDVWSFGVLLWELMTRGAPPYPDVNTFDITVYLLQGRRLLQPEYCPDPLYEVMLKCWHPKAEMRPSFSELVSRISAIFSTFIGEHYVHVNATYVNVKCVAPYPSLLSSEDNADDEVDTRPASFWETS
Procedure: as §1, §2, §3

[6] = Sos et al. 2009, read-out: GI50 literature

Q: With `Cc1nc(Nc2ncc(C(=O)Nc3c(C)cccc3Cl)s2)cc(N2CCN(CCO)CC2)n1` [dasatinib, N-(2-chloro-6-methylphenyl)-2-[[6-[4-(2-hydroxyethyl)piperazin-1-yl]-2-methylpyrimidin-4-yl]amino]-1,3-thiazole-5-carboxamide] as the compound, how does the GI50 (HCC1359 NSCLC cell line [1]) read?
A: 520 nM

Q: What about the GI50 (LCLC103H NSCLC cell line [2]) of the same compound?
A: 80 nM

Q: And the GI50 [3]?
A: 2800 nM

Q: What about the GI50 (Calu6 NSCLC cell line; [6]) of the same compound?
A: 22.5 µM

Q: What about the IC50 (Calu6 NSCLC cell line; read-out: Class) of the same compound?
A: > 1000 nM

Q: And the GI50 (H2009 NSCLC cell line; [6])?
A: 746 nM

Q: And the Sensitivity class (H2009 NSCLC cell line)?
A: < 1000 nM

Q: And the GI50 (H2030 NSCLC cell line; [6])?
A: 118 nM

Q: And the Sensitivity class (H2030 NSCLC cell line)?
A: < 1000 nM

Q: What about the GI50 (H2077 NSCLC cell line; [6]) of the same compound?
A: 10.1 µM

Q: And the Sensitivity class (H2077 NSCLC cell line)?
A: > 1000 nM

Q: What about the GI50 (H2172 NSCLC cell line; [6]) of the same compound?
A: 16.7 µM

Q: What about the IC50 (H2172 NSCLC cell line; read-out: Class) of the same compound?
A: > 1000 nM

Q: What about the GI50 (H322 NSCLC cell line; [6]) of the same compound?
A: 259 nM

Q: And the IC50 (H322 NSCLC cell line; read-out: Class)?
A: < 1000 nM

Q: And the GI50 (H460 NSCLC cell line; [6])?
A: 24.2 µM

Q: And the IC50 (H460 NSCLC cell line; read-out: Class)?
A: > 1000 nM

Q: And the GI50 (H647 NSCLC cell line; [6])?
A: 12.4 µM

Q: And the IC50 (H647 NSCLC cell line; read-out: Class)?
A: > 1000 nM

Q: And the GI50 (HCC1359 NSCLC cell line [4]; [6])?
A: 11.3 µM

Q: What about the IC50 (HCC1359 NSCLC cell line [4]; read-out: Class) of the same compound?
A: > 1000 nM

Q: What about the GI50 (LCLC103H NSCLC cell line [5]; [6]) of the same compound?
A: 13.9 µM

Q: And the IC50 (LCLC103H NSCLC cell line [5]; read-out: Class)?
A: > 1000 nM

Q: And the GI50 (LouNH91 NSCLC cell line; [6])?
A: 113 nM

Q: And the IC50 (LouNH91 NSCLC cell line; read-out: Class)?
A: < 1000 nM

Q: And the GI50 (HCC4006 NSCLC cell line; [6])?
A: 838 nM

Q: And the IC50 (HCC4006 NSCLC cell line; read-out: Class)?
A: < 1000 nM

Q: What about the GI50 (H322M NSCLC cell line; [6]) of the same compound?
A: 81.9 nM

Q: And the IC50 (H322M NSCLC cell line; read-out: Class)?
A: < 1000 nM

Q: What about the GI50 (HCC2279 NSCLC cell line; [6]) of the same compound?
A: 139 nM

Q: And the IC50 (HCC2279 NSCLC cell line; read-out: Class)?
A: < 1000 nM

Q: And the GI50 (PC9 NSCLC cell line; [6])?
A: 460 nM

Q: What about the IC50 (PC9 NSCLC cell line; read-out: Class) of the same compound?
A: < 1000 nM

Q: Which results are given for `CN1CCN(CCOc2cc(OC3CCOCC3)c3c(Nc4c(Cl)ccc5c4OCO5)ncnc3c2)CC1` [saracatinib, N-(5-Chloro-1,3-benzodioxol-4-yl)-7-[2-(4-methyl-1-piperazinyl)ethoxy]-5-[(tetrahydro-2H-pyran-4-yl)oxy]-4-quinazolinamine]?
A: Kd (MAP2K1): 1230 nM; Kd (MAP2K2): 2310 nM; Kd (MET): 6.66 µM
